This note sets out measurements from publication PMC4149375, “Potential of 2-Hydroxy-3-Phenylsulfanylmethyl-[1,4]-Naphthoquinones against Leishmania (L.) infantum: Biological Activity and Structure-Activity Relationships” (PLoS ONE, 2014).

Read-outs that look alike come from different tables or passages of the source.

Data set [1] deals with L. (L.) infantum promastigotes. Briefly: Antileishmanial activity against promastigotes, MTT assay. The format is cell-based, Leishmania (L.) infantum. Conditions: 48 h at 24°C, highest concentration 200 µM, na = not active, read-out: Promastigotes IC50 (C.I.95%). The procedure: (§1) L. (L.) infantum (MHOM/BR/1972/LD) promastigotes were maintained in M-199 medium supplemented with 10% fetal bovine serum (FBS) and 0.25% hemin at 24°C. L. (L.) infantum was maintained in golden hamsters for up to approximately 60–70 days post-infection. The amastigotes were obtained from the spleens of previously infected hamsters by differential centrifugation. The macrophages were collected from the peritoneal cavity of BALB/c mice by washing with RPMI-1640 (without phenol red and supplemented with 10% FBS). NCTC (clone 929) murine conjunctive cells were maintained in RPMI-1640 (without phenol red and supplemented with 10% FBS) at 37°C in a humidified containing 5% CO2.
Promastigotes were counted in a Neubauer hemocytometer and seeded at 1×10^6 cells per well in 96-well microplates using miltefosine as standard drug. The tested compounds were incubated at the highest concentration of 200 µM for 48 h at 24°C. Parasite viability was determined using the MTT assay. Briefly, 3-[4,5-dimethylthiazol-2-yl]-2,5-diphenyltetrazolium bromide (MTT) was dissolved in phosphate-buffered saline (PBS) at 5 mg/mL, sterilized through 0.22 µm membranes and incubated with cells (20 µL/well) for 4 h at 24°C. The extraction of the mitochondrial formazan was done with 80 µL of 10% SDS for 18 h at 24°C. The optical density was determined in FilterMax F5 (Molecular Devices) at 570 nm. Promastigotes incubated without compounds were used as the viability control (100% viability) and without cells (blank).
(§2) The obtained data represent the mean and standard deviation of two independent experiments performed in duplicate. The IC50 and CC50 values were calculated using sigmoid dose-response curves performed using GraphPad Prism version 5.0 (GraphPad Software, San Diego, CA, USA), and the 95% confidence intervals (95% CI) were included. The ANOVA test was performed to evaluate the significance (p<0.05) of data.
(Formazan colour is commonly taken as a measure of viable cells.)

For data set [2], the system named is intracellular L. (L.) infantum amastigotes. Description: Activity against intracellular amastigotes in infected macrophages, Giemsa counting. The format is cell-based, Leishmania (L.) infantum. Conditions: for IC50 / Amastigotes IC50 (C.I.95%): BALB/c peritoneal macrophages infected with amastigotes, 120 h at 37°C, na = not active; for IC50: read-out: Amastigotes IC50 (C.I.95%). The procedure:
as §1
The activity against intracellular L. (L.) infantum amastigotes was determined in infected macrophages. Macrophages were obtained as previously described and seeded for 24 h at 1×10^5 cells/well in 16-well slide chambers (Nunc). Amastigotes were isolated from the spleens of previously infected hamsters, separated by differential centrifugation and added to the macrophages at a ratio of 1∶10 (macrophage/amastigotes) for 24 h at 37°C. Non-internalized parasites were removed by washing once with medium and the cells were then incubated with the test compounds for 120 h at 37°C in 5% CO2, using miltefosine as standard drug. At the end of the assay, the cells were fixed in methanol, stained with Giemsa and observed under a light microscope to determine the number of intracellular parasites. The number of amastigotes was determined in 400 macrophages from the drug-treated and control wells [15].
as §2

Data set [3] concerns NCTC clone 929 murine conjunctive cells. Description: Cytotoxicity against mammalian cells, MTT assay. The format is cell-based. Conditions: NCTC clone 929, 48 h at 37°C, highest concentration 200 µM; for CC50: read-out: Cytotoxicity CC50 (C.I.95%). On the procedure:
as §1
(§3) NCTC cells were seeded at 6×10^4 cells/well in 96-well microplates at 37°C in a 5% CO2. The mammalian cells were incubated with tested compounds to the highest concentration of 200 µM for 48 h at 37°C, using miltefosine as standard drug. The viability of the cells was determined by MTT assay at 570 nm. The selectivity index (SI) was determined considering the following equation: CC50 NCTC cells/IC50 amastigotes.
as §2

The nature of data set [4]: Cytotoxicity against mammalian cells, MTT assay. The format is cell-based, murine. The note with it: mouse, NCTC clone 929 murine conjunctive cells, NCTC clone 929, 48 h at 37°C, highest concentration 200 µM, read-out: Cytotoxicity CC50 (C.I.95%). The procedure:
as §1, §3, §2

As to `Cc1ccc(SCC2=C(O)C(=O)c3ccccc3C2=O)cc1` [Compound 1], the IC50 in data set [1] and in data set [2] was above 200 µM in each case. Besides, the CC50 (as a rule, the concentration that lowers cell viability or growth by half) in data set [3] was found to be 89.1 µM.
Consider `O=C1C(O)=C(CSc2ccccc2)C(=O)c2ccccc21` [Compound 2], for which the IC50 (commonly the midpoint of a concentration-inhibition curve) in data set [1] was found to be 124 µM. In addition, the “Amastigotes IC50 (C.I.95%)” value in data set [2] is on record as “no activity”. Further, the CC50 in data set [3] was found to be 84.7 µM.
Take `COc1ccc(SCC2=C(O)C(=O)c3ccccc3C2=O)cc1` [Compound 3]: the IC50 in data set [1] was found to be 75 µM. The “Amastigotes IC50 (C.I.95%)” value in data set [2] is “no activity”. Further, the 50% cytotoxic concentration (CC50) in data set [3] is 92.6 µM.
Regarding `O=C1C(O)=C(CSc2ccc(Cl)cc2)C(=O)c2ccccc21` [Compound 4], in data set [1], the concentration for half-maximal inhibition (IC50) was found to be 85.4 µM. Moreover, the “Amastigotes IC50 (C.I.95%)” value in data set [2] is “no activity”. Besides, in data set [3], the CC50 is 82.2 µM.
Take `O=C1C(O)=C(CSc2ccc(F)cc2)C(=O)c2ccccc21` [Compound 5]: the IC50 in data set [1] was determined as 129 µM. In data set [2], the “Amastigotes IC50 (C.I.95%)” value is on record as “no activity”. Also, the CC50 in data set [3] amounted to 97.9 µM.
In the case of `CSc1ccc(SCC2=C(O)C(=O)c3ccccc3C2=O)cc1` [Compound 6], in data set [1], the IC50 is 188 µM. For the same compound, the “Amastigotes IC50 (C.I.95%)” value in data set [2] is listed as “no activity”. Moreover, in data set [3], the CC50 was determined as 100 µM.
`O=C1C(O)=C(CSc2ccc([N+](=O)[O-])cc2)C(=O)c2ccccc21` [Compound 7]: the IC50 in data set [1] was found to be 8.44 µM. For the same compound, the “Amastigotes IC50 (C.I.95%)” value in data set [2] was “no activity”. Moreover, the 50% cytotoxic concentration (CC50) in data set [3] is 85.5 µM.
In the case of `CCCSCC1=C(O)C(=O)c2ccccc2C1=O` [Compound 9], the IC50 in data set [1] was above 200 µM. Besides, the concentration for half-maximal inhibition (IC50) in data set [2] was above 200 µM. In addition, in data set [3], the “Cytotoxicity CC50 (C.I.95%)” value was “lack of toxicity” and the CC50 was above 200 µM.
As for `Cc1ccccc1SCC1=C(O)C(=O)c2ccccc2C1=O` [Compound 13], the IC50 in data set [1] was above 200 µM. In addition, the IC50 in data set [2] is above 200 µM. In addition, in data set [3], the “Cytotoxicity CC50 (C.I.95%)” value is recorded as “lack of toxicity” and the CC50 was above 200 µM.
Turning to `Cc1cccc(SCC2=C(O)C(=O)c3ccccc3C2=O)c1` [Compound 14], in data set [1], the IC50 is above 200 µM. In addition, in data set [2], the IC50 was above 200 µM. Also, in data set [3], the “Cytotoxicity CC50 (C.I.95%)” value was “lack of toxicity” and the CC50 is above 200 µM.
Regarding `O=C1C(O)=C(CSc2ccc3ccccc3c2)C(=O)c2ccccc21` [Compound 15], the IC50 in data set [1] was above 200 µM. Further, the IC50 in data set [2] is above 200 µM. In data set [3], the “Cytotoxicity CC50 (C.I.95%)” value is given as “lack of toxicity” and the CC50 was above 200 µM.
For the compound `O=C1C(O)=C(C(Sc2ccc([N+](=O)[O-])cc2)c2ccccc2)C(=O)c2ccccc21` (stereo not drawn) [Compound 19], the IC50 in data set [1] came to 9.06 µM. The “Amastigotes IC50 (C.I.95%)” value in data set [2] is “no activity”. Further, in data set [3], the CC50 worked out at 69.5 µM.
Turning to `Cc1cccc(SC(C2=C(O)C(=O)c3ccccc3C2=O)c2ccccc2)c1` (stereo not drawn) [Compound 20], the figures for the IC50 in data set [1] and in data set [2] were 26.4 µM and 14.7 µM, respectively. In data set [3], the CC50 was determined as 138 µM.
With `CCCSC(C1=C(O)C(=O)c2ccccc2C1=O)c1ccccc1` (stereo not drawn) [Compound 24], the IC50 in data set [1] was above 200 µM. In data set [2], the IC50 is above 200 µM. For the same compound, in data set [3], the “Cytotoxicity CC50 (C.I.95%)” value is listed as “lack of toxicity” and the CC50 was above 200 µM.
In the case of `Cc1ccc(SC(C2=C(O)C(=O)c3ccccc3C2=O)c2ccc([N+](=O)[O-])cc2)cc1` (stereo not drawn) [Compound 25], the concentration for half-maximal inhibition (IC50) in data set [1] amounted to 108 µM. Besides, the “Amastigotes IC50 (C.I.95%)” value in data set [2] is “no activity”. For the same compound, the CC50 in data set [3] is 42.6 µM.
Regarding `O=C1C(O)=C(C(Sc2ccccc2)c2ccc([N+](=O)[O-])cc2)C(=O)c2ccccc21` (stereo not drawn) [Compound 28], in data set [1], the IC50 came out at 40.1 µM. Moreover, in data set [2], the “Amastigotes IC50 (C.I.95%)” value is “no activity”. Moreover, in data set [3], the CC50 amounted to 94.2 µM.
For `Cc1ccccc1SC(C1=C(O)C(=O)c2ccccc2C1=O)c1ccc([N+](=O)[O-])cc1` (stereo not drawn) [Compound 34], in that order: 82.9 µM, “no activity” and 96 µM.
On to `CCCSC(C1=C(O)C(=O)c2ccccc2C1=O)c1ccc([N+](=O)[O-])cc1` (stereo not drawn) [Compound 35], for which the IC50 in data set [1] and in data set [2] was above 200 µM each time. Also, the CC50 in data set [3] came out at 75.1 µM.
Turning to `O=C1C(O)=C(C(Sc2ccc3ccccc3c2)c2ccc([N+](=O)[O-])cc2)C(=O)c2ccccc21` (stereo not drawn) [Compound 36], the half-maximal inhibitory concentration (IC50) in data set [1] and in data set [2] was above 200 µM throughout. Moreover, the CC50 in data set [3] turned out to be 58.2 µM.
As for `CCCCCCCCCCCCCCCCOP(=O)([O-])OCC[N+](C)(C)C` [miltefosine, reference compound], the IC50 in data set [1] (Leishmania infantum) was 16.9 µM; in data set [2] (Leishmania infantum, Peritoneal macrophage, in Mus musculus), 17.8 µM. Moreover, in data set [2] (CC50 NCTC cells/IC50 amastigotes), the “S.I. selectivity index (CC50 mammalian cells/IC50 amastigotes)” value amounted to 6.85. The CC50 at 48 h in data set [4] is 122 µM.
